The assay concerns 3T3-L1 adipocytes. As to the kind of experiment: 3T3-L1 adipocyte lipolysis induced by C26 medium (glycerol assay). It counts as cell-based, mouse. Particulars: for glycerol content: 48 h, control 287.44 μM, model 441.95 μM. From the text: Experimental results of compound 4 alleviating 3T3-L1 adipocytes lipolysis.
Glycerol assay was used to evaluate intracellular lipid content. Glycerol kinase phosphorylates glycerol to glycerol 3-phosphate; glycerol 3-phosphate is oxidized by glycerophosphate oxidase to produce hydrogen peroxide; the chromogenic substrate is converted to benzoquinone imine in the presence of peroxidase, and its optical density value is proportional to the glycerol concentration.
The above methods allow to evaluate the effect of drugs on the fat lipolysis cell model. The methods are as follows:
3T3-L1 cells were seeded in 6-well plates in a culture medium (high-glucose DMEM medium containing 10% FBS and 1% P/S) and placed in a 5% CO2, 37° C. environment. The cells were allowed to grow to 100% confluence and continued to fuse for 3 days to start the differentiation operation. The culture medium for the first differentiation was high-glucose DMEM medium containing 0.5 mM IBMX, […], 1 μM dexamethasone and 10% FBS and 1% P/S, and then differentiated 3T3-L1 adipocytes for 72 h; The culture medium for the second differentiation was high-glucose DMEM medium containing […] and 10% FBS, and 1% P/S, and then differentiated 3T3-L1 adipocytes for 72 h; the culture medium for the third differentiation was high-glucose DMEM medium containing 10% FBS, and 1% P/S, and then differentiated 3T3-L1 for 72 h; After successful differentiation, it was obvious that there were a large number of oil droplets in the cells. In addition, C26 cells were inoculated in T75 flasks in the culture medium (high-glucose DMEM medium containing 10% FBS, and 1% P/S) and placed in a 5% CO2, 37° C. environment. While C26 cells (6×10^6 cells/flask) were passaged, add 15 mL of phenol red-free high-glucose DMEM culture medium to the T75 flask with 100% confluent C26 cells and sequentially subculture for 48 h. To obtain the supernatant, centrifuge C26 culture medium at 1000 rpm for 3 min and at 4000 rpm for 10 min successively, and take the supernatant to obtain the C26 supernatant successively. The C26 supernatant was mixed with phenol red-free high-glucose DMEM medium at 1:1 ratio as a fat lipolysis-inducing medium. Except for the control group with phenol red-free high-glucose DMEM medium, the other each group was added with the same amount of fat lipolysis-inducing liquid; one group was used as the model group, and the rest groups were used as the experimental groups for drug administration. At the same time, compound 4 stock solution was also added into the cells at the following concentrations of 12.5 μM, 25 μM, 50 μM, 100 μM.
The glycerol detection method was performed as follows: after 48 h of action, the glycerol content in the supernatant was detected using the glycerol detection kit from Beijing Applygen Gene Technology Co., Ltd.

The values that follow come from patent publication US12269808B2, “Amino dithioperacid thioester compound, preparation method therefor, and use thereof” (FUDAN UNIVERSITY, priority 2019, dated 2025).

As to `CCCCCCCCCCCCSSC(=S)N1CCCC1` [Compound 4], the glycerol content runs as follows: (12.5 μM compound) 379.44 µM; (25 μM compound) 347.14 µM; (50 μM compound) 313.67 µM; (100 μM compound) 310.95 µM. The “glycerol released from 3T3-L1 mature adipocytes (in words)” value (12.5-100 μM, C26 cell culture medium induced) is “concentration-dependent reduction”.
